Starred links: 1 amine or outer side, 2 acyl side, 3 side chain; linkers in the order of their positions; H or OH if unused. Positions of bridges follow the written chain, without caps; N, C: chain ends. Non-standard residues stand in square brackets, D forms with d. Residues, ends and D or L forms follow the SMILES beside them. X1 = N[C@H](CC(=O)[*:1])C(=O)[*:2]; d(αMeL) = CC(C)C[C@@](C)(N)C(=O)O; Suc = O=C(CCC(=O)[*:2])[*:1]; Dap = NC[C@H](N)C(=O)O; Sar = CNCC(=O)O
Molecular target: T1, human Oxytocin (OTR) receptor (Homo sapiens, UniProt P30559)
T1 construct: expressed in transfected cells
T1 sequence (P30559 1-389): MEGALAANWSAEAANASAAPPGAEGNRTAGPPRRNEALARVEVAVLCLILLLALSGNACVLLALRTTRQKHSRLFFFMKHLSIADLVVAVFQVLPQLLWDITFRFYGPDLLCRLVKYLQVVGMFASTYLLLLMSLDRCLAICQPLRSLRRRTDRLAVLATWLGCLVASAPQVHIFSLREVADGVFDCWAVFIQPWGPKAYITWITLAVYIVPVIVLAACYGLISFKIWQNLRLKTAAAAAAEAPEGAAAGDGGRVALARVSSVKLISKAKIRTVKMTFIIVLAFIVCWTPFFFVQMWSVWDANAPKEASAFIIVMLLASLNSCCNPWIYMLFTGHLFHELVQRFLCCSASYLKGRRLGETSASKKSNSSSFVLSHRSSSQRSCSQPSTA
Test: Calcium flux assay (FLIPR), agonist mode, CHO cells expressing human oxytocin receptor
Assay type: cell-based
Settings: for EC50: CHO cells, human OTR, calcium flux FLIPR, read-out: hOT EC50
From the text: Chines Hamster Ovary (CHO) cells were transfected with expression plasmids encoding either the human V1a, the human Oxytocin (OTR) or the human V2 receptor, the later in combination with the chimeric Gqs5 G protein to redirect the signal to Calcium flux. Stable cells were cloned by limiting dilution to yield monoclonal cell lines expressing either human V1a, human V2+Gqs5 or human OTR receptors and selected based on functional responses detected on a fluorometric imaging plate reader (FLIPR) detecting Calcium flux in the cell after receptor activation. The stable cell lines were grown in F-12 K Nutrient Mixture (Kaighns Modification), containing 10% foetal bovine serum (FBS), 1% penicillin-streptomycin, 1% L-[…], 200 ug/ml Geneticin at 37° C. in a 10% CO2 incubator at 95% humidity.
On the afternoon before the assay, cells were plated at a density of 50,000 cells/well into black 96 well plates with clear bottoms to allow cell inspection and fluorescence measurements from the bottom of each well. The density of cells was sufficient to yield a confluent monolayer the next day. Hanks balanced salt solution, without phenol red, containing 20 mM HEPES (pH 7.3) and 2.5 mM probenecid (assay buffer) was prepared fresh for each experiment. Compound dilutions were made using a Beckman Biomek 2000 laboratory automation workstation, in assay buffer containing 1% DMSO. The dye-loading buffer consisted of a final concentration of 2 μM Fluo-4-AM (dissolved in DMSO and pluronic acid) in assay buffer. The existing culture media was removed from the wells and 100 μl of the dye-loading buffer was added to each well and incubated for approximately 60 min at 37° C. in a 5% CO2 incubator at 95% humidity. Once dye-loaded, the cells were washed thoroughly on an Embla cell washer with the assay buffer to remove any unincorporated dye. Exactly 100 μl assay buffer was left in each well.
Each 96 well plate containing dye-loaded cells was placed into the FLIPR machine and the laser intensity set to a suitable level to detect low basal fluorescence. To test compounds as agonists, 25 μl diluted compound was added to the plate 10 seconds into the fluorescent measurements and fluorescent response was recorded for 5 minutes. The fluorescence data was normalized to the endogenous full agonist dose-response set at 100% for the maximum response and 0% for the minimum. Each agonist concentration-response curve was constructed using a four parameter logistic equation with Microsoft Excel XLFit as follows: Y=Minimum+((Maximum−Minimum)/(1+10^(LogEC50-X)nH)), where y is the % normalized fluorescence, minimum is the minimum y, maximum is the maximum y, logEC50 is the log10 concentration which produces 50% of the maximum induced fluorescence, x is the log10 of the concentration of the agonist compound and H is the slope of the curve (the Hill Coefficient). The maximum value gives the efficacy of the agonist test compound in percentage. The concentration of agonist that produced a half-maximal response is represented by the EC50 value, the logarithm of which yielded the pEC50 value.

[1] = maximum response normalized to endogenous full agonist = 100%

Structure (SMILES) | EC50 | hOT efficacy (%) [1] | Emax (CHO, maximum response normalized to endogenous full agonist = 100%, read-out: hOT efficacy (%))
CC[C@H](C)[C@@H]1NC(=O)[C@H](Cc2ccc(O)cc2)NC(=O)C[C@@H](N)C(=O)NC[C@@H](C(=O)N(C)CC(=O)N[C@@H](CC(C)C)C(=O)NCC(N)=O)NC(=O)[C@H](CC(N)=O)NC(=O)[C@H](CCC(N)=O)NC1=O [Example 4] (YIQN[Dap][Sar]LG-NH2; linker N-5 via X1) | 5 nM | 126% | 
CC[C@H](C)[C@@H]1NC(=O)[C@H](Cc2ccc(O)cc2)NC(=O)CCC(=O)NC[C@@H](C(=O)N2CCC[C@H]2C(=O)N[C@](C)(CC(C)C)C(=O)NCC(N)=O)NC(=O)[C@H](CC(N)=O)NC(=O)[C@H](CCC(N)=O)NC1=O [Example 7] (YIQN[Dap]P[d(αMeL)]G-NH2; linker N-5 via Suc) | 3 nM | 101% | 
CC[C@H](C)[C@@H]1NC(=O)[C@H](Cc2ccc(O)cc2)NC(=O)CCC(=O)NC[C@@H](C(=O)N2CCC[C@H]2C(=O)N[C@@H](CCSC)C(=O)NCC(N)=O)NC(=O)[C@H](CC(N)=O)NC(=O)[C@H](CCC(N)=O)NC1=O [Example 8] (YIQN[Dap]PMG-NH2; linker N-5 via Suc) | 1 nM | 134% | 
CC[C@H](C)[C@@H]1NC(=O)[C@H](Cc2ccc(O)cc2)NC(=O)CCC(=O)NC[C@@H](C(=O)N2CCC[C@H]2C(=O)N[C@H](C(=O)NCC(N)=O)[C@@H](C)CC)NC(=O)[C@H](CC(N)=O)NC(=O)[C@H](CCC(N)=O)NC1=O [Example 9] (YIQN[Dap]PIG-NH2; linker N-5 via Suc) | 1 nM | 132% | 
CC[C@H](C)[C@@H]1NC(=O)[C@H](Cc2ccc(O)cc2)NC(=O)CCC(=O)NC[C@@H](C(=O)N2CCC[C@H]2C(=O)N[C@H](C(=O)NCC(N)=O)[C@@H](C)O)NC(=O)[C@H](CC(N)=O)NC(=O)[C@H](CCC(N)=O)NC1=O [Example 10] (YIQN[Dap]PTG-NH2; linker N-5 via Suc) | 1 nM | 130% | 
CC[C@H](C)[C@@H]1NC(=O)[C@H](Cc2ccc(O)cc2)NC(=O)CCC(=O)NC[C@@H](C(=O)N2CCC[C@H]2C(=O)N[C@@H](CO)C(=O)NCC(N)=O)NC(=O)[C@H](CC(N)=O)NC(=O)[C@H](CCC(N)=O)NC1=O [Example 11] (YIQN[Dap]PSG-NH2; linker N-5 via Suc) | 3 nM | 128% | 
CC[C@H](C)[C@@H]1NC(=O)[C@H](Cc2ccc(O)cc2)NC(=O)CCC(=O)NC[C@@H](C(=O)N2CCC[C@H]2C(=O)N[C@H](C(=O)NCC(N)=O)C(C)C)NC(=O)[C@H](CC(N)=O)NC(=O)[C@H](CCC(N)=O)NC1=O [Example 12] (YIQN[Dap]PVG-NH2; linker N-5 via Suc) | 1.6 nM |  | 130%
CC[C@H](C)[C@@H]1NC(=O)[C@H](Cc2ccc(O)cc2)NC(=O)CCC(=O)NC[C@@H](C(=O)N2CCC[C@H]2C(=O)N[C@@H](CCC(N)=O)C(=O)NCC(N)=O)NC(=O)[C@H](CC(N)=O)NC(=O)[C@H](CCC(N)=O)NC1=O [Example 13] (YIQN[Dap]PQG-NH2; linker N-5 via Suc) | 8 nM | 128% | 
CC[C@H](C)[C@@H]1NC(=O)[C@H](Cc2ccc(O)cc2)NC(=O)CCC(=O)NC[C@@H](C(=O)N2CCC[C@H]2C(=O)N[C@@H](Cc2ccccc2)C(=O)NCC(N)=O)NC(=O)[C@H](CC(N)=O)NC(=O)[C@H](CCC(N)=O)NC1=O [Example 14] (YIQN[Dap]PFG-NH2; linker N-5 via Suc) | 6 nM | 122% | 
CC[C@H](C)[C@@H]1NC(=O)[C@H](Cc2ccc(O)cc2)NC(=O)CCC(=O)NC[C@@H](C(=O)N2CCC[C@H]2C(=O)N[C@@H](Cc2cnc[nH]2)C(=O)NCC(N)=O)NC(=O)[C@H](CC(N)=O)NC(=O)[C@H](CCC(N)=O)NC1=O [Example 15] (YIQN[Dap]PHG-NH2; linker N-5 via Suc) | 8 nM | 123% | 

From US9957298B2, “Peptides as oxytocin agonists” (Hoffmann-La Roche Inc., priority 2014, dated 2018)
